ChEMBL document CHEMBL3244062, “3-Halo-5,7-dimethylpyrazolo [1,5-a]pyrimidines, a nonbenzodiazepinoid class of antianxiety agents devoid of potentiation of central nervous system depressant effects of ethanol or barbiturates” (J Med Chem, 1977)
Active and inactive are the calls of the source. The rule behind the calls is not given here.

Assays:
Mus musculus [1] = assay: Antianxiety activity in mouse assessed as ataxia, catatonia, and alterations in motor activity and startle reflex at 50 mg/kg, ip after 30 to 120 mins; assay type: functional, organism-based; design: dose 50 mg/kg
Mus musculus [2] = assay: Antianxiety activity in mouse assessed as ataxia, catatonia, and alterations in motor activity and startle reflex at 100 mg/kg, ip after 30 to 120 mins; assay type: functional, organism-based; design: dose 100 mg/kg
Rattus norvegicus [3] = assay: Antipsychotic activity in ip dosed rat assessed as reduction in avoidance responding by Sidman avoidance test; assay type: functional
[4] = Acute toxicity in mouse measured following single ip dose; assay type: organism-based; conditions: in vivo
Mus musculus [5] = assay: […] in po dosed mouse assessed as potentiation of ethanol-induced loss of the righting reflex in 50% mouse; assay type: functional
Rattus norvegicus [6] = assay: Antianxiety activity in po dosed rat assessed as punished responding by conditioned lick suppression behavioral test; assay type: functional; conditions: read-out: MED
Mus musculus [7] = assay: […] in po dosed mouse assessed as potentiation of sodium barbital-induced loss of the righting reflex in 50% mouse; assay type: functional
Rattus norvegicus [8] = assay: Antianxiety activity in ip dosed rat assessed as punished responding by conditioned lick suppression behavioral test; assay type: functional; conditions: read-out: MED
[9] = Acute toxicity in mouse measured following single po dose; assay type: organism-based; conditions: in vivo
Rattus norvegicus [10] = assay: Anticonvulsant activity in ip dosed rat assessed as impairment of motor performance by spontaneous motor activity test; assay type: functional
Rattus norvegicus [11] = assay: Anticonvulsant activity in ip dosed rat assessed as impairment of motor performance by forced motor activity test; assay type: functional
Rhesus monkey [12] = assay: Antiaggressive activity in Rhesus monkey assessed as reduction in biting, pushing or attacking the pole responses at 2.5 to 10 mg/mg, po after 0 to 6 hrs; assay type: functional, organism-based; conditions: Macaca mulatta
Rattus norvegicus [13] = assay: Antiaggressive activity in Long-Evans black-hooded rat assessed as suppression of muricide behavior for 2 mins period at 80 mg/kg, po; assay type: functional; conditions: Long-Evans black-hood
Rhesus monkey [14] = assay: Antiaggressive activity in Rhesus monkey assessed as reduction in biting, pushing or attacking the pole responses at 25 to 100 mg/mg, po after 0 to 6 hrs; assay type: functional, organism-based; conditions: Macaca mulatta
Mus musculus [15] = assay: Antiaggressive activity in mouse assessed as change in foot shock-induced fighting behavior at 20 mg/kg, po after 90 mins; assay type: functional
Mus musculus [16] = assay: Antiaggressive activity in mouse assessed as change in foot shock-induced fighting behavior at 80 mg/kg, po after 30 mins; assay type: functional
Rattus norvegicus [17] = assay: Antiaggressive activity in Long-Evans black-hooded rat assessed as suppression of muricide behavior for 2 mins period at 20 mg/kg, po; assay type: functional; conditions: Long-Evans black-hood
Mus musculus [18] = assay: Antiaggressive activity in mouse assessed as change in foot shock-induced fighting behavior at 80 mg/kg, po after 90 mins; assay type: functional
Mus musculus [19] = assay: Antiaggressive activity in mouse assessed as change in foot shock-induced fighting behavior at 20 mg/kg, po after 30 mins; assay type: functional

Row | SMILES | Activity (Mus musculus [1]) | Activity (Mus musculus [2]) | further results
1 | Cc1cc(C)n2ncc(/C(N)=N/O)c2n1 | inactive | inactive | 
2 | Cc1cc(C)n2ncc(C(=O)C(F)(F)F)c2n1 | inactive | inactive | 
3 | CCc1cc(CC)n2ncc(Br)c2n1 | Active | Active | 
4 | Brc1cnn2cccnc12 | inactive | inactive | 
5 | CCCc1cc(C)nc2c(Br)cnn12 | Active | Active | 
6 | Cc1cnc2ccnn2c1 | inactive | inactive | 
7 | Cc1cc(C)n2ncc(S(=O)(=O)N3CCN(C)CC3)c2n1 | inactive | inactive | 
8 | CN(C)CCCN1c2ccccc2Sc2ccc(Cl)cc21 [CHLORPROMAZINE] |  |  | ED50 (Rattus norvegicus [3]): 3.7 mg/kg
9 | CCCCc1cc(CCCC)n2ncc(Br)c2n1 | inactive | inactive | 
10 | Cc1cc(C)n2nc(Cl)cc2n1 | Active | Active | 
11 | CC(C)c1cc(C(C)C)n2ncc(Br)c2n1 | inactive | inactive | 
12 | Cc1cc(C)n2ncc([N+](=O)[O-])c2n1 | inactive | inactive | 
13 | Cc1ccn2nccc2n1 | Active | Active | 
14 | Cc1cc(C)n2ncc(N)c2n1 | inactive | inactive | 
15 | CCOC(=O)c1cnn2c(C)cc(C)nc12 | inactive | inactive | 
16 | Cc1cc(C)n2ncc(C#N)c2n1 | inactive | inactive | 
17 | Cc1cc(C)n2ncc(C)c2n1 | Active | Active | 
18 | CC(=O)Cc1cc(C)nc2ccnn12 | Active | Active | 
19 | Cc1cc(C)n2ncc(S(=O)(=O)Cl)c2n1 | inactive | inactive | 
20 | CNC1=Nc2ccc(Cl)cc2C(c2ccccc2)=[N+]([O-])C1 [CHLORDIAZEPOXIDE] |  |  | LD50 [4]: 183 mg/kg; HD50 (Mus musculus [5]): 12.6 mg/kg; minimal effective dose (Rattus norvegicus [6]): 60 mg/kg; HD50 (Mus musculus [7]): 6.4 mg/kg; ED50 (Rattus norvegicus [3]): 14.3 mg/kg; minimal effective dose (Rattus norvegicus [8]): 20 mg/kg; LD50 [9]: 939 mg/kg
21 | Cc1cn2ncc(Br)c2nc1C | inactive | inactive | 
22 | Cc1cc(C)n2ncc(SC#N)c2n1 | inactive | inactive | 

Row | SMILES | Activity (Mus musculus [1]) | Activity (Mus musculus [2]) | further results
23 | Cc1cc(C)n2ncc(C(N)=S)c2n1 | inactive | inactive | 
24 | Cc1cc(C)n2nc(Br)cc2n1 | Active | Active | 
25 | Cc1cc(C)n2ncc(C(N)=O)c2n1 | Active | Active | 
26 | Cc1cc(C)n2nccc2n1 | Active | Active | LD50 [4]: 537 mg/kg; ED50 (Rattus norvegicus [10]): 79 mg/kg; HD50 (Mus musculus [5]): 228.6 mg/kg; minimal effective dose (Rattus norvegicus [6]): 60 mg/kg; HD50 (Mus musculus [7]): 118.8 mg/kg; ED50 (Rattus norvegicus [3]): 60.3 mg/kg; ED50 (Rattus norvegicus [11]): 65 mg/kg; minimal effective dose (Rattus norvegicus [8]): 40 mg/kg; LD50 [9]: 928 mg/kg
27 | CN1C(=O)CN=C(c2ccccc2)c2cc(Cl)ccc21 [DIAZEPAM] |  |  | ED50 (Rattus norvegicus [10]): 9.2 mg/kg; HD50 (Mus musculus [5]): 1.5 mg/kg; minimal effective dose (Rattus norvegicus [6]): 20 mg/kg; HD50 (Mus musculus [7]): 0.5 mg/kg; ED50 (Rattus norvegicus [3]): 11.3 mg/kg; ED50 (Rattus norvegicus [11]): 5.6 mg/kg; minimal effective dose (Rattus norvegicus [8]): 20 mg/kg; inhibition (Rhesus monkey [12]): inactive
28 | Cc1cc(C)n2ncc(N=O)c2n1 | inactive | inactive | 
29 | Cc1cc(C)n2ncc(Br)c2n1 | Active | Active | inhibition in vivo at 80 mg/kg (Rattus norvegicus [13]): 60%; inhibition (Rhesus monkey [14]): inactive; LD50 [4]: 458 mg/kg; ED50 (Rattus norvegicus [10]): 27.1 mg/kg; HD50 (Mus musculus [5]): 236.8 mg/kg; Activity (Mus musculus [15]): 13%; minimal effective dose (Rattus norvegicus [6]): 20 mg/kg; Activity (Mus musculus [16]): -46%; HD50 (Mus musculus [7]): 61.9 mg/kg; inhibition in vivo at 20 mg/kg (Rattus norvegicus [17]): 0%; ED50 (Rattus norvegicus [3]): 29.5 mg/kg; ED50 (Rattus norvegicus [11]): 18.4 mg/kg; minimal effective dose (Rattus norvegicus [8]): 10 mg/kg; Activity (Mus musculus [18]): -8%; LD50 [9]: 1350 mg/kg; Activity (Mus musculus [19]): 30%
30 | Cc1ccnc2c(Br)cnn12 | inactive | inactive | 
31 | Cc1cc(C)n2[nH]c(=O)cc2n1 | inactive | inactive | 
32 | Cc1ccnc2ccnn12 | inactive | inactive | 
33 | FC(F)(F)c1cc(C(F)(F)F)n2nccc2n1 | inactive | inactive | 
34 | Cc1cc(C)n2ncc(F)c2n1 | Active | Active | minimal effective dose (Rattus norvegicus [6]): 80 mg/kg; ED50 (Rattus norvegicus [3]): 40.2 mg/kg; minimal effective dose (Rattus norvegicus [8]): 40 mg/kg
35 | Cc1cc(C)n2ncc(-c3ccccc3)c2n1 | inactive | inactive | 
36 | c1cnc2ccnn2c1 | Active | Active | 
37 | Cc1cn2nccc2nc1C | inactive | inactive | 
38 | Cc1cc(C)n2ncc(S(N)(=O)=O)c2n1 | inactive | inactive | 
39 | Cc1cc(C)n2ncc(Cl)c2n1 | Active | Active | inhibition in vivo at 80 mg/kg (Rattus norvegicus [13]): 80%; inhibition (Rhesus monkey [14]): inactive; LD50 [4]: 369 mg/kg; ED50 (Rattus norvegicus [10]): 38.6 mg/kg; HD50 (Mus musculus [5]): 391.7 mg/kg; Activity (Mus musculus [15]): 22%; minimal effective dose (Rattus norvegicus [6]): 10 mg/kg; Activity (Mus musculus [16]): -89%; HD50 (Mus musculus [7]): 60.9 mg/kg; inhibition in vivo at 20 mg/kg (Rattus norvegicus [17]): 0%; ED50 (Rattus norvegicus [3]): 31.8 mg/kg; ED50 (Rattus norvegicus [11]): 32.7 mg/kg; minimal effective dose (Rattus norvegicus [8]): 10 mg/kg; Activity (Mus musculus [18]): -57%; LD50 [9]: 599 mg/kg; Activity (Mus musculus [19]): -3%
40 | Cc1cc(C)n2ncc(I)c2n1 | Active | Active | LD50 [4]: 612 mg/kg; ED50 (Rattus norvegicus [10]): 24.9 mg/kg; HD50 (Mus musculus [5]): 296.1 mg/kg; minimal effective dose (Rattus norvegicus [6]): 120 mg/kg; HD50 (Mus musculus [7]): 142.8 mg/kg; ED50 (Rattus norvegicus [3]): 39.1 mg/kg; ED50 (Rattus norvegicus [11]): 19.8 mg/kg; minimal effective dose (Rattus norvegicus [8]): 20 mg/kg; LD50 [9]: > 3000 mg/kg
41 | CCc1cc(C)nc2c(Br)cnn12 | Active | Active | 
42 | Cc1cc(C)n2nc(O)c(Br)c2n1 | inactive | inactive | 
43 | Cc1cc(C)n2ncc(S)c2n1 | inactive | inactive | 
